# Results reported in publication PMC12091848, “Structural Insights Into Galectin‐3 Recognition of a Selenoglycomimetic” (Chemmedchem, 2025).
# Molecular target: T1, Galectin-3 (Gal-3) (Homo sapiens, UniProt P17931)
# T1 construct: gene LGALS3
# Assay: biochemical
# T1 sequence (P17931 114-250 limits assumed): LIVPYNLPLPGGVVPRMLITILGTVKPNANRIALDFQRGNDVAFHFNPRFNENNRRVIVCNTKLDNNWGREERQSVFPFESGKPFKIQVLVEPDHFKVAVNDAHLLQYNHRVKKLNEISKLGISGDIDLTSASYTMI
smiles,measurement,value
"OC[C@H]1O[C@@H]([Se][C@@H]2O[C@H](CO)[C@H](O)[C@H](O)[C@H]2O)[C@H](O)[C@@H](O)[C@H]1O [SeDG, di(β‐D‐galactopyranosyl)selenide]",Kd,149 ± 30 µM
